Assay results from US12227500B2, “Substituted pyrrolo[2,3-b]pyridines for suppressing toxic endoplasmic reticulum stress” (THE TRUSTEES OF COLUMBIA UNIVERSITY IN THE CITY OF NEW YORK, priority 2018, dated 2025).
Where two headings read alike, the source gives them in different places.

What was measured:
Assay in all cases: Radiolabeled ATP kinase assay, panel of 60 kinases (Table S5)
Type in all cases: biochemical
[1] = molecular target: T1, panel of 60 human kinases (Homo sapiens, UniProt P22607); conditions: FGFR3; 0.1 μM; 10 μM ATP; read-out: % Enzyme Activity (relative to DSMO controls)
T1 construct: purchased Reaction Biology Corp
Outline: (§1)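 Cell-free radiolabeled-ATP kinase assays across a panel of 60 kinases; each compound tested at 0.1 μM and 0.5 μM for inhibition.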

[2] = molecular target: T2, panel of 60 human kinases (Homo sapiens, UniProt P49841); conditions: GSK3b; 0.1 μM; 10 μM ATP; read-out: % Enzyme Activity (relative to DSMO controls)
T2 construct: purchased Reaction Biology Corp
Outline: as §1

[3] = molecular target: T3, panel of 60 human kinases (Homo sapiens, UniProt P50750); conditions: 0.1 μM, 10 μM ATP, read-out: % Enzyme Activity (relative to DSMO controls)
T3 construct: purchased Reaction Biology Corp
Outline: as §1

[4] = molecular target: T4, panel of 60 human kinases (Homo sapiens, UniProt Q00536); conditions: CDK16/cyclin Y (PCTAIRE); 0.1 μM; 10 μM ATP; read-out: % Enzyme Activity (relative to DSMO controls)
T4 construct: purchased Reaction Biology Corp
Outline: as §1

[5] = molecular target: T5, panel of 60 human kinases (Homo sapiens, UniProt Q15759); conditions: P38b/MAPK11; 0.1 μM; 10 μM ATP; read-out: % Enzyme Activity (relative to DSMO controls)
T5 construct: purchased Reaction Biology Corp
Outline: as §1

[6] = molecular target: T6, panel of 60 human kinases (Homo sapiens, UniProt Q96GD4); conditions: Aurora B; 0.1 μM; 10 μM ATP; read-out: % Enzyme Activity (relative to DSMO controls)
T6 construct: purchased Reaction Biology Corp
Outline: as §1

[7] = molecular target: T7, panel of 60 human kinases (Homo sapiens, UniProt Q99683); conditions: ASK1/MAP3K5; 0.1 μM; 10 μM ATP; read-out: % Enzyme Activity (relative to DSMO controls)
T7 construct: purchased Reaction Biology Corp
T7 sequence (Q99683 1-1374): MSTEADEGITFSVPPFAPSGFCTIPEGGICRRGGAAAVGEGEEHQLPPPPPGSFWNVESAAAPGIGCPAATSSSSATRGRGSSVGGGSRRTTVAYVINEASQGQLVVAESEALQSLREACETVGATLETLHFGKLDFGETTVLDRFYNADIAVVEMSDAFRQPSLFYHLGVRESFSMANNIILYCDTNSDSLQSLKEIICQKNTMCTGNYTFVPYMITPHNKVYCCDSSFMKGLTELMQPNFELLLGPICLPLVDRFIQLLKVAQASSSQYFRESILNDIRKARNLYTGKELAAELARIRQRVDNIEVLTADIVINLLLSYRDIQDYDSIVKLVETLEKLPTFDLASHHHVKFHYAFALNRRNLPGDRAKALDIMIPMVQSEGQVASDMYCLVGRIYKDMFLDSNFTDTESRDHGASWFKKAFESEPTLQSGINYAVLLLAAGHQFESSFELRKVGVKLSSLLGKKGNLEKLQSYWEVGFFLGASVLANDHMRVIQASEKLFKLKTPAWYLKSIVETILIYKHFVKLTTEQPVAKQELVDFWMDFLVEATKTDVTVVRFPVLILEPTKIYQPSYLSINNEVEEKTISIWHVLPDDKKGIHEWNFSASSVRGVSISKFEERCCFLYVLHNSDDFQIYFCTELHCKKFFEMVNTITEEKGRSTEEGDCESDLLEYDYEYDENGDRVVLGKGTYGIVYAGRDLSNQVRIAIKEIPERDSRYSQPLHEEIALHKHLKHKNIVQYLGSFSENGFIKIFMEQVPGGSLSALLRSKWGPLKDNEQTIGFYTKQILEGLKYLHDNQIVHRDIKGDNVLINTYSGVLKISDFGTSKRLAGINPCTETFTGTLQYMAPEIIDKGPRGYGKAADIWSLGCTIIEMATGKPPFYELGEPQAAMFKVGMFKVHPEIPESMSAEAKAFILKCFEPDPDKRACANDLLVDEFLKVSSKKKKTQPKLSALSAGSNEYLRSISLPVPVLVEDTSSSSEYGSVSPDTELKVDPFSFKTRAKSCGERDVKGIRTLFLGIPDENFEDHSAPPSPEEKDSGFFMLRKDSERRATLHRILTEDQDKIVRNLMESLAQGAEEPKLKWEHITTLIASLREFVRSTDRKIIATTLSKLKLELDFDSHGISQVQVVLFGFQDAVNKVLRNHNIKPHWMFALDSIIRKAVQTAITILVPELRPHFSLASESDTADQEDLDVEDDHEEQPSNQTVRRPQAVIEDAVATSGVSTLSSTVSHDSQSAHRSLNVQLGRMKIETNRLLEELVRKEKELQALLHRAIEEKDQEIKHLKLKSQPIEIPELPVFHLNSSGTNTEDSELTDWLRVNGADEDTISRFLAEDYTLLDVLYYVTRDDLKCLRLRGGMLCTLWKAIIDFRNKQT
Outline: as §1

T4 sequence (Q00536 whole entry): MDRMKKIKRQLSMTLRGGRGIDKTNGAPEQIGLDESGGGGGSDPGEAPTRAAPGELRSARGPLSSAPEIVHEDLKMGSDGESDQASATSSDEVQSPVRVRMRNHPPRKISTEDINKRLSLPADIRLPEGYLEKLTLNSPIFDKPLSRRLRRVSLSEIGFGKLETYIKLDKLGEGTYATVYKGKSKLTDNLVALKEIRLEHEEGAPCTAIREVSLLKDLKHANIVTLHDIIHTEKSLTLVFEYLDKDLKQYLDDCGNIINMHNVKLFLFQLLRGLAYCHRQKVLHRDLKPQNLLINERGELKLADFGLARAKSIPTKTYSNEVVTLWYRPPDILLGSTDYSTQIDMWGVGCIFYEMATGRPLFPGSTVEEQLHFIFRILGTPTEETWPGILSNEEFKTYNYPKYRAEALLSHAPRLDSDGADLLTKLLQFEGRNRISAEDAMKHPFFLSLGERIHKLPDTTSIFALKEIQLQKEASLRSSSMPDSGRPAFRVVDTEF
T3 sequence (P50750 whole entry): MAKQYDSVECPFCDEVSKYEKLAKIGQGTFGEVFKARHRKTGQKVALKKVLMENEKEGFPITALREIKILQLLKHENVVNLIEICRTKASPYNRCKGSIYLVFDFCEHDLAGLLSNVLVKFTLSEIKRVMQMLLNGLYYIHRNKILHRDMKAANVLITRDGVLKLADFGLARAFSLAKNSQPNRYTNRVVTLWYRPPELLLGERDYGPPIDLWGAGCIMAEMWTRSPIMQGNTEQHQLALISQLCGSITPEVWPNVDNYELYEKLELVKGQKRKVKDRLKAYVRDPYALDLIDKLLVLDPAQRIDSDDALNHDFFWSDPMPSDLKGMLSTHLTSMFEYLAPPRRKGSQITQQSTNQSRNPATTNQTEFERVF
T1 sequence (P22607 23-806): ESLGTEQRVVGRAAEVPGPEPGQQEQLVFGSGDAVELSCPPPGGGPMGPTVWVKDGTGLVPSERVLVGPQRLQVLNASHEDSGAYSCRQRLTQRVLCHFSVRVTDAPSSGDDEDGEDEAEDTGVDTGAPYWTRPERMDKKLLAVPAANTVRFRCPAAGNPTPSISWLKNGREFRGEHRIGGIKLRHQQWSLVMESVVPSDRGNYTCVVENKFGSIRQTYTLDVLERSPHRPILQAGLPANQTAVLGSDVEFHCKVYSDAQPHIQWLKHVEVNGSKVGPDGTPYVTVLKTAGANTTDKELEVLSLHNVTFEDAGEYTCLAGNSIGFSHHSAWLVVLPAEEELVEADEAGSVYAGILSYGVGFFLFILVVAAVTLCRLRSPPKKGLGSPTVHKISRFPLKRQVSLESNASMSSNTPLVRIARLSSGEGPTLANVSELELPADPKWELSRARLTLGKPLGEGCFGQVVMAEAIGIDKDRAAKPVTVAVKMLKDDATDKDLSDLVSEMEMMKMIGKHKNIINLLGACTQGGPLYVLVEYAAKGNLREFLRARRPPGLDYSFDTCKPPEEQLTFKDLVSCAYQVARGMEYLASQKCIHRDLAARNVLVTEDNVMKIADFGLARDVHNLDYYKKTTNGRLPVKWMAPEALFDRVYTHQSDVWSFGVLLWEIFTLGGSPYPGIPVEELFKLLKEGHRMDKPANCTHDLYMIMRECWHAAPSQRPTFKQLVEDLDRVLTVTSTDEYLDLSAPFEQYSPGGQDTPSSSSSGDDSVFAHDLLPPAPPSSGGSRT
T5 sequence (Q15759 whole entry): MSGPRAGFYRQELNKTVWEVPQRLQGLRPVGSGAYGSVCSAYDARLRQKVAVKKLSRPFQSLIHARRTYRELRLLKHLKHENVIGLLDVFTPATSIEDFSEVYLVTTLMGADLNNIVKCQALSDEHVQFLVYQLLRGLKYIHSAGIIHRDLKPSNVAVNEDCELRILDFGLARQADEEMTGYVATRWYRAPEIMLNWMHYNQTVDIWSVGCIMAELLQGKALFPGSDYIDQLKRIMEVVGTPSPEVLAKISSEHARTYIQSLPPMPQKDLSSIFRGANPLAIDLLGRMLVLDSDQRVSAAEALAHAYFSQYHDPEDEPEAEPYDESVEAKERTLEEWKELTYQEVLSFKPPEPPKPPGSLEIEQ
T6 sequence (Q96GD4 whole entry): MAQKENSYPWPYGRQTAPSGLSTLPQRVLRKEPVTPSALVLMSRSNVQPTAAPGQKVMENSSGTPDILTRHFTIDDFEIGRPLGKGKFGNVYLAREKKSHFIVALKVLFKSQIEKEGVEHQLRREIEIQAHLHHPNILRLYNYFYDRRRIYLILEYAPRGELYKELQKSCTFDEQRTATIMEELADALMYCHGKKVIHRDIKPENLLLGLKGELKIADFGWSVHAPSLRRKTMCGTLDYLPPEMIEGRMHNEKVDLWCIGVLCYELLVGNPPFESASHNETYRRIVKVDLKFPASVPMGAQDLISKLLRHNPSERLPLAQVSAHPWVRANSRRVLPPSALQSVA
T2 sequence (P49841 whole entry): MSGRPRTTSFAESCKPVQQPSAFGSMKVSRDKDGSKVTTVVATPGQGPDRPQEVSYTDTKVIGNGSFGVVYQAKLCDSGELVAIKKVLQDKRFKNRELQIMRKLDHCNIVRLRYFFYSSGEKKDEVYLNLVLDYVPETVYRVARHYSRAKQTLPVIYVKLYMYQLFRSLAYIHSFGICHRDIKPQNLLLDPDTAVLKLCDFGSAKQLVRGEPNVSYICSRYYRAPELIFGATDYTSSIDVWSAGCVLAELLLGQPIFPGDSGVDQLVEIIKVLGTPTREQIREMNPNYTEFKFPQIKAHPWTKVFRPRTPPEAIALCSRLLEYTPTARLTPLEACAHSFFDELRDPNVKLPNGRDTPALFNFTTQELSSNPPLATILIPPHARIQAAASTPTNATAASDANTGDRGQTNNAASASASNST

SMILES	remaining activity at 0.1 µM [1] [%]	remaining activity at 0.1 µM [2] [%]	remaining activity at 0.1 µM ([3]; CDK9/cyclin K) [%]	remaining activity at 0.1 µM ([3]; CDK9/cyclin T1) [%]	remaining activity at 0.1 µM ([3]; CDK9/cyclin T2) [%]	remaining activity at 0.1 µM [4] [%]	remaining activity at 0.1 µM [5] [%]	remaining activity at 0.1 µM [6] [%]	remaining activity at 0.1 µM [7] [%]
CN1CCN(Cc2ccc(-c3cnc4[nH]cc(-c5ccc6[nH]ccc6c5)c4c3)cc2)CC1 [Compound 1, 3-(1H-Indol-5-yl)-5-(4-((4-methylpiperazin-1-yl)methyl)phenyl)-1H-pyrrolo[2,3-b]pyridine, reference compound]	43.5	100	102	96.6	98.1	94.9	104	88.8	90.8
CN1CCN(Cc2ccc(-c3cnc4[nH]cc(-c5ccccc5Cl)c4c3)cc2)CC1 [Compound 7as, 3-(2-Chlorophenyl)-5-(4-((4-methylpiperazin-1-yl)methyl)phenyl)-1H-pyrrolo[2,3-b]pyridine]	42.3	98.9	96.6	82.3	74.2	75.2	99.5	82.5	87.6
CN1CCN(Cc2ccc(-c3cnc4[nH]cc(-c5cnn(Cc6ccccc6)c5)c4c3)cc2)CC1 [Compound 7ah, 3-(1-Benzyl-1H-pyrazol-4-yl)-5-(4-((4-methylpiperazin-1-yl)methyl)phenyl)-1H-pyrrolo[2,3-b]pyridine]	76.6	60.6	93.3	57.8	82.7	8.19	101	69.9	95.6
CN1CCN(Cc2ccc(-c3cnc4[nH]cc(-c5ccncc5)c4c3)cc2)CC1 [Compound 7n, 5-(4-((4-Methylpiperazin-1-yl)methyl)phenyl)-3-(pyridin-4-yl)-1H-pyrrolo[2,3-b]pyridine]	85.9	90.7	83.4	47.9	38.8	21.5	101	86.9	95.4
COc1ccccc1-c1c[nH]c2ncc(-c3ccc(CN4CCN(C)CC4)cc3)cc12 [Compound 7at, 3-(2-Methoxyphenyl)-5-(4-((4-methylpiperazin-1-yl)methyl)phenyl)-1H-pyrrolo[2,3-b]pyridine]	82.1	97.3	79.5	46.3	37.4	76.9	97.7	87.8	96.3
CN1CCN(Cc2ccc(-c3cnc4[nH]cc(-c5cccc(Cl)c5)c4c3)cc2)CC1 [Compound 7ad, 3-(3-Chlorophenyl)-5-(4-((4-methylpiperazin-1-yl)methyl)phenyl)-1H-pyrrolo[2,3-b]pyridine]	70.1	98.1	99.7	78	95.2	96.9	103	91.8	95.4
CN1CCN(Cc2ccc(-c3cnc4[nH]cc(-c5ccoc5)c4c3)cc2)CC1 [Compound 7w, 3-(Furan-3-yl)-5-(4-((4-methylpiperazin-1-yl)methyl)phenyl)-1H-pyrrolo[2,3-b]pyridine]	70.7	85.1	97.8	96.1	65.6	80.8	99.3	89.9	96
CN1CCN(Cc2ccc(-c3cnc4[nH]cc(-c5ccc6c(c5)OCCO6)c4c3)cc2)CC1 [Compound 7d, 3-(2,3-Dihydrobenzo[b][1,4]dioxin-6-yl)-5-(4-((4-methylpiperazin-1-yl)methyl)phenyl)-1H-pyrrolo[2,3-b]pyridine]	73.4	30.9	95.8	85.5	93.7	58	101	83.5	80.2
Cc1nn(C)c(C)c1-c1c[nH]c2ncc(-c3ccc(CN4CCN(C)CC4)cc3)cc12 [Compound 7ai, 5-(4-((4-Methylpiperazin-1-yl)methyl)phenyl)-3-(1,3,5-trimethyl-1H-pyrazol-4-yl)-1H-pyrrolo[2,3-b]pyridine]	82	94	99.7	85.8	84.8	87.7	104	99	96.2
